# From publication PMC6352943, “Novel pyrazolo[3,4-d]pyrimidines: design, synthesis, anticancer activity, dual EGFR/ErbB2 receptor tyrosine kinases inhibitory activity, effects on cell cycle profile and caspase-3-mediated apoptosis” (Journal of Enzyme Inhibition and Medicinal Chemistry, 2019)
# What was measured:
# Assay in all cases: NCI 60 cell line single dose screen (SRB)
# Type in all cases: cell-based
# [1] = test system: NCI-H23; conditions: Homo sapiens; NCI-H23 (non-small cell lung cancer), single dose 10^−5 M, 48 h; read-out: Growth inhibition percentage
# In short: (§1)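 Cells were plated and grown 24 h at 37 °C, 5% CO2 before compound addition from DMSO stock, then exposed 48 h. Adherent cells were fixed with cold TCA (final 10%) and suspension cells with 16% TCA. SRB-stained protein was read at 515 nm and percent growth was calculated against time-zero and untreated plates.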
# [2] = test system: MOLT-4; conditions: Homo sapiens; MOLT-4 (leukemia), single dose 10^−5 M, 48 h; read-out: Growth inhibition percentage
# In short: as §1
# [3] = test system: SNB-19; conditions: Homo sapiens; SNB-19 (CNS cancer), single dose 10^−5 M, 48 h; read-out: Growth inhibition percentage
# In short: as §1
# [4] = test system: MDA-MB-231/ATCC; conditions: Homo sapiens; MDA-MB-231/ATCC (breast cancer), single dose 10^−5 M, 48 h; read-out: Growth inhibition percentage
# In short: as §1
# [5] = test system: NCI-H460; conditions: Homo sapiens; NCI-H460 (non-small cell lung cancer), single dose 10^−5 M, 48 h; read-out: Growth inhibition percentage
# In short: as §1
# [6] = test system: RXF 393; conditions: Homo sapiens; RXF 393 (renal cancer), single dose 10^−5 M, 48 h; read-out: Growth inhibition percentage
# In short: as §1
# [7] = test system: LOX IMVI; conditions: Homo sapiens; LOX IMVI (melanoma), single dose 10^−5 M, 48 h; read-out: Growth inhibition percentage
# In short: as §1
# [8] = test system: OVCAR-4; conditions: Homo sapiens; OVCAR-4 (ovarian cancer), single dose 10^−5 M, 48 h; read-out: Growth inhibition percentage
# In short: as §1
# [9] = test system: HCT-15; conditions: Homo sapiens; HCT-15 (colon cancer), single dose 10^−5 M, 48 h; read-out: Growth inhibition percentage
# In short: as §1
# [10] = test system: PC-3; conditions: Homo sapiens; PC-3 (prostate cancer), single dose 10^−5 M, 48 h; read-out: Growth inhibition percentage
# In short: as §1
# [11] = test system: OVCAR-5; conditions: Homo sapiens; OVCAR-5 (ovarian cancer), single dose 10^−5 M, 48 h; read-out: Growth inhibition percentage
# In short: as §1
# [12] = test system: SF-593; conditions: Homo sapiens, SF-593 (CNS cancer), single dose 10^−5 M, 48 h, read-out: Growth inhibition percentage
# In short: as §1
# [13] = test system: SN12C; conditions: Homo sapiens; SN12C (renal cancer), single dose 10^−5 M, 48 h; read-out: Growth inhibition percentage
# In short: as §1
# [14] = test system: HOP-62; conditions: Homo sapiens; HOP-62 (non-small cell lung cancer), single dose 10^−5 M, 48 h; read-out: Growth inhibition percentage
# In short: as §1
# [15] = test system: SR; conditions: Homo sapiens; SR (leukemia), single dose 10^−5 M, 48 h; read-out: Growth inhibition percentage
# In short: as §1
# [16] = test system: KM12; conditions: Homo sapiens; KM12 (colon cancer), single dose 10^−5 M, 48 h; read-out: Growth inhibition percentage
# In short: as §1
# [17] = test system: SK-OV-3; conditions: Homo sapiens; SK-OV-3 (ovarian cancer), single dose 10^−5 M, 48 h; read-out: Growth inhibition percentage
# In short: as §1
# [18] = test system: SK-MEL-5; conditions: Homo sapiens; SK-MEL-5 (melanoma), single dose 10^−5 M, 48 h; read-out: Growth inhibition percentage
# In short: as §1
# [19] = test system: BT-549; conditions: Homo sapiens; BT-549 (breast cancer), single dose 10^−5 M, 48 h; read-out: Growth inhibition percentage
# In short: as §1
# [20] = test system: HS 578T; conditions: Homo sapiens; HS 578T (breast cancer), single dose 10^−5 M, 48 h; read-out: Growth inhibition percentage
# In short: as §1
# [21] = test system: NCI-H226; conditions: Homo sapiens; NCI-H226 (non-small cell lung cancer), single dose 10^−5 M, 48 h; read-out: Growth inhibition percentage
# In short: as §1
Compound,inhibition at 10 µM [1],inhibition at 10 µM [2],inhibition at 10 µM [3],inhibition at 10 µM [4],inhibition at 10 µM [5],inhibition at 10 µM [6],inhibition at 10 µM [7],inhibition at 10 µM [8],inhibition at 10 µM [9],inhibition at 10 µM [10],inhibition at 10 µM [11],inhibition at 10 µM [12],inhibition at 10 µM [13],inhibition at 10 µM [14],inhibition at 10 µM [15],inhibition at 10 µM [16],inhibition at 10 µM [17],inhibition at 10 µM [18],inhibition at 10 µM [19],inhibition at 10 µM [20],other results
"COc1ccc(N2CCN(c3ncnc4c3c(C)nn4-c3ccc(F)cc3)CC2)cc1 [Compound 8d, 1–(4-Fluorophenyl)-4–(4-(4-methoxyphenyl)piperazin-1-yl)-3-methyl-1H-pyrazolo[3,4-d]pyrimidine]",9.95%,3.49%,2.02%,2.36%,-4.87%,-9.45%,0.28%,-1.77%,-5.55%,12.5%,-7.96%,8.43%,6.31%,1.51%,8.97%,0.4%,3.69%,-1.01%,2.13%,5.99%,inhibition at 10 µM [21]: 5.22%
"Cc1nn(-c2ccc(F)cc2)c2ncnc(NN)c12 [Compound 9, 1–(4-Fluorophenyl)-4-hydrazinyl-3-methyl-1H-pyrazolo[3,4-d]-pyrimidine]",19.1%,22.7%,11.3%,23.1%,-11.7%,5.47%,13.3%,17.8%,-5.82%,13.8%,-7.64%,-0.7%,8.3%,4.27%,20.2%,3.79%,7.98%,3.85%,-10.8%,-4.22%,inhibition at 10 µM [21]: 15.5%
"COc1cc(C=NNc2ncnc3c2c(C)nn3-c2ccc(F)cc2)ccc1O [Compound 10b, 1–(4-Fluorophenyl)-4–(2-(4-hydroxy-3-methoxybenzylidene)-hydrazinyl)-3-methyl-1H-pyrazolo[3,4-d]pyrimidine]",9.39%,38.3%,6.67%,15.6%,11.9%,4.9%,19%,9.65%,18.9%,27%,-30.9%,3.85%,14.9%,-6.39%,22.9%,28.1%,0.81%,43.4%,9.63%,0.89%,inhibition at 10 µM [21]: -2.3%
"COc1cc(C=NNc2ncnc3c2c(C)nn3-c2ccc(F)cc2)cc(OC)c1OC [Compound 10c, 1–(4-Fluorophenyl)-3-methyl-4–(2-(3,4,5-trimethoxybenzylidene)-hydrazinyl)-1H-pyrazolo[3,4-d]pyrimidine]",14.2%,7.03%,-4.87%,16.5%,-3.23%,3.39%,9.33%,-8.66%,-5.3%,16.5%,-11.4%,13.2%,4.99%,0.38%,13.7%,5.82%,7.06%,15.3%,-1.06%,13.9%,inhibition at 10 µM [21]: 5.82%
